{
  "source": "ChEMBL document CHEMBL6109122",
  "about": "(J Med Chem, 2025)",
  "key": {"[1]": {"target": "Tyrosine-protein kinase JAK1 (Homo sapiens, UniProt P23458)", "sequence (P23458 whole entry, the tested form may be a part)": "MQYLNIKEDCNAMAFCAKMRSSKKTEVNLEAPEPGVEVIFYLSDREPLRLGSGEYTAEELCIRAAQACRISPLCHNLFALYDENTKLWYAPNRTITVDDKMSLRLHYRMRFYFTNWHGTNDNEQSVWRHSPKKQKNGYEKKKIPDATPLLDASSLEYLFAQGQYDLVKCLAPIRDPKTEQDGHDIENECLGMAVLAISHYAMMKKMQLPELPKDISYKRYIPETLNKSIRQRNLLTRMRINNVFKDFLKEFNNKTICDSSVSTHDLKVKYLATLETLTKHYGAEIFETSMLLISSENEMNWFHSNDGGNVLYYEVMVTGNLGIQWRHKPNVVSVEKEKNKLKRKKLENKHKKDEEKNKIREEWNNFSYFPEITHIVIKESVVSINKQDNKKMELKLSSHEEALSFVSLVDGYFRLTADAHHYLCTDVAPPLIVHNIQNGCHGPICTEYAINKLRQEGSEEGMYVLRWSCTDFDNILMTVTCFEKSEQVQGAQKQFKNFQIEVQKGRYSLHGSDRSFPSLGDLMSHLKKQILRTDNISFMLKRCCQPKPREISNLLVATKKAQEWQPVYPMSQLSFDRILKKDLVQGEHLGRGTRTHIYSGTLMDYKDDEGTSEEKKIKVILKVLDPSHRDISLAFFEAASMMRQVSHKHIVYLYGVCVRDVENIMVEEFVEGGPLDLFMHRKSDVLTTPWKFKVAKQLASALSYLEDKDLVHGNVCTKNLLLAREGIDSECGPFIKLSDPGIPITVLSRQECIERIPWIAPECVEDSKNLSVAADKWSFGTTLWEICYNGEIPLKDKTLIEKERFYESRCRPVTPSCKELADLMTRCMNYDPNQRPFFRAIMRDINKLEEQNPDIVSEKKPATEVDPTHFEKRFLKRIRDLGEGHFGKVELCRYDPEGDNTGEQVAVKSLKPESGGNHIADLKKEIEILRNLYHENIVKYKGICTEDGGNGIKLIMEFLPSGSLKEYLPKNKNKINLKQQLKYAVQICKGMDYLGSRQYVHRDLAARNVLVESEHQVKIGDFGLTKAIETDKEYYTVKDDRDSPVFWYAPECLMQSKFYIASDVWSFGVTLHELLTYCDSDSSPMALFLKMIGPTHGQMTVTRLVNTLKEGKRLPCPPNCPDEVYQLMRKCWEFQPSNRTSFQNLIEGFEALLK", "test": "Displacement of fluorophore-labeled probe from JAK1 JH2 domain (unknown origin) by HTRF assay"}, "Mus musculus [2]": {"organism": "Mus musculus", "test": "Anti-inflammatory activity in imiquimod-induced female BALB/c mouse psoriasis model assessed as reduction in INF-alpha expression in skin by ELISA method", "format": "functional, organism-based"}, "Mus musculus [3]": {"test_system": "Mus musculus", "test": "Anti-inflammatory activity in imiquimod-induced female BALB/c mouse psoriasis model assessed as alleviation of psoriasis pathology at 15 mg/kg, ip administered daily topically for 6 days", "format": "functional, organism-based", "conditions": "time 6.0 day"}, "[4]": {"test": "Inhibition of TYK2 dependent STAT3 phosphorylation in IL-12 stimulated human PBMC cells preincubated for 60 mins followed by IL-12 stimulation and measured after 60 mins by FACS assay", "format": "cell-based"}, "[5]": {"target": "T1, Protein cereblon/Non-receptor tyrosine-protein kinase TYK2 (Homo sapiens, UniProt P29597+Q96SW2)", "test": "PROTAC activity at CRBN/TYK2 in human Jurkat cells assessed as induction of degradation of TYK2 at 10 nM preincubated with MG132 for 2 hrs followed by compound addition and measured after 10 hrs by Western blot analysis", "format": "cell-based"}, "Mus musculus [6]": {"organism": "Mus musculus", "test": "Anti-inflammatory activity in imiquimod-induced female BALB/c mouse psoriasis model assessed as reduction in IL-23 expression in serum by ELISA method", "format": "functional, organism-based"}, "Mus musculus [7]": {"organism": "Mus musculus", "test": "Anti-inflammatory activity in imiquimod-induced female BALB/c mouse psoriasis model assessed as reduction in IL-17 expression in skin by ELISA method", "format": "functional, organism-based"}, "[8]": {"test": "MRT (0 to t) in male ICR mouse at 5 mg/kg, ip measured up to 24 hrs by LC-MS/MS analysis", "format": "ADME, organism-based", "conditions": "in vivo"}, "[9]": {"target": "T1, Protein cereblon/Non-receptor tyrosine-protein kinase TYK2", "test": "PROTAC activity at CRBN/TYK2 in human Jurkat cells assessed as induction of degradation of TYK2 measured after 10 hrs by Western blot analysis", "format": "cell-based"}, "[10]": {"target": "T2, Non-receptor tyrosine-protein kinase TYK2 (Homo sapiens, UniProt P29597)", "T2 sequence (P29597 whole entry, the tested form may be a part)": "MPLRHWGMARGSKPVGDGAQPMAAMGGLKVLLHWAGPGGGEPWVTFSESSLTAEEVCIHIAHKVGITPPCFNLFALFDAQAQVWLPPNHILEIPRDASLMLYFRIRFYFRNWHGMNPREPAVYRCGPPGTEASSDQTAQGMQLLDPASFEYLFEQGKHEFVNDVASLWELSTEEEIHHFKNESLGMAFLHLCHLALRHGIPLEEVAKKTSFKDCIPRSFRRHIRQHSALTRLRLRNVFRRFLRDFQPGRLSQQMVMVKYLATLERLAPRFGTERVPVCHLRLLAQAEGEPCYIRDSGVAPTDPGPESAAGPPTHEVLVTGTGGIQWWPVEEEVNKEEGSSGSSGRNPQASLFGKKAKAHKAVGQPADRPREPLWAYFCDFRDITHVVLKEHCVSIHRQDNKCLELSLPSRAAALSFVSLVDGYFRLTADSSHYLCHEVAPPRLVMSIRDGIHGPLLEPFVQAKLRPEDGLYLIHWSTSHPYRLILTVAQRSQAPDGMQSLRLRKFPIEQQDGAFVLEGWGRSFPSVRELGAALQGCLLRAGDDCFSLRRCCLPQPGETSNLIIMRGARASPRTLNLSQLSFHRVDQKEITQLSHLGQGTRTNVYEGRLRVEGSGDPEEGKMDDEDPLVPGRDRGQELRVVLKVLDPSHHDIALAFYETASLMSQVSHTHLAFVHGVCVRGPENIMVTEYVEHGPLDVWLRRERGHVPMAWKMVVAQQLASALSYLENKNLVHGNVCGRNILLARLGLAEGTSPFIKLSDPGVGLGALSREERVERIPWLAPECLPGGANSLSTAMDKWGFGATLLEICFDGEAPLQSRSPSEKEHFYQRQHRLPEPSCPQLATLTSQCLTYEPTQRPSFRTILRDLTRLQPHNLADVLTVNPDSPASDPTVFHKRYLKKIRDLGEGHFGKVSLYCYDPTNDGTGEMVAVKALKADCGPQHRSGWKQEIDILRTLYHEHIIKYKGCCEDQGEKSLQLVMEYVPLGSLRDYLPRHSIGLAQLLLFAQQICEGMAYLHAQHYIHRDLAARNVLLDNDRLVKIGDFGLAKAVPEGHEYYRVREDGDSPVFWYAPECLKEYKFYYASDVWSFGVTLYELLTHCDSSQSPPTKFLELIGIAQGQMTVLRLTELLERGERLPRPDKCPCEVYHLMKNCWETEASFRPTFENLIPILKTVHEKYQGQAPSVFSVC", "test": "Binding affinity to TYK2 JH1 domain (unknown origin) by ADP-glo kinase assay"}, "Jurkat [11]": {"test_system": "Jurkat", "test": "Downregulation of JAK3 protein level in human Jurkat cells at 1 to 100 nM measured after 10 hrs by Western blot analysis", "format": "functional, cell-based", "conditions": "dose 1-100 nM"}, "Mus musculus [12]": {"organism": "Mus musculus", "test": "Anti-inflammatory activity in imiquimod-induced female BALB/c mouse psoriasis model assessed as reduction in INF-alpha expression in serum by ELISA method", "format": "functional, organism-based"}, "[13]": {"test": "Cmax in male ICR mouse at 5 mg/kg, ip measured up to 24 hrs by LC-MS/MS analysis", "format": "ADME, organism-based", "conditions": "in vivo"}, "Mus musculus [14]": {"test_system": "Mus musculus", "test": "Anti-inflammatory activity in imiquimod-induced female BALB/c mouse psoriasis model assessed as reduction in micro abscess at 5 mg/kg, ip administered daily topically for 6 days by H and E staining based analysis", "format": "functional, organism-based", "conditions": "time 6.0 day"}, "Jurkat [15]": {"test_system": "Jurkat", "test": "Downregulation of JAK1 protein level in human Jurkat cells at 1 to 100 nM measured after 10 hrs by Western blot analysis", "format": "functional, cell-based", "conditions": "dose 1-100 nM"}, "[16]": {"test": "Half life in male ICR mouse at 5 mg/kg, ip measured up to 24 hrs by LC-MS/MS analysis", "format": "ADME, organism-based", "conditions": "in vivo"}, "[17]": {"test": "Tmax in male ICR mouse at 5 mg/kg, ip measured up to 24 hrs by LC-MS/MS analysis", "format": "ADME, organism-based", "conditions": "in vivo"}, "[18]": {"test": "Selectivity ratio of IC50 for displacement of fluorophore-labeled probe from JAK2 JH2 domain (unknown origin) to IC50 for displacement of fluorophore-labeled probe from TYK2 JH2 domain (unknown origin)"}, "Mus musculus [19]": {"test_system": "Mus musculus", "test": "Anti-inflammatory activity in imiquimod-induced female BALB/c mouse psoriasis model assessed as reduction in acanthosis at 5 mg/kg, ip administered daily topically for 6 days by H and E staining based analysis", "format": "functional, organism-based", "conditions": "time 6.0 day"}, "[20]": {"target": "T1, Protein cereblon/Non-receptor tyrosine-protein kinase TYK2", "test": "PROTAC activity at CRBN/TYK2 in human Jurkat cells assessed as induction of degradation of TYK2 at 10 nM preincubated with thalidomide for 2 hrs followed by compound addition and measured after 10 hrs by Western blot analysis", "format": "cell-based"}, "[21]": {"test": "Inhibition of IFN-alpha activated TYK2 dependent STAT3 phosphorylation in human Jurkat cells incubated for 10 hrs by Western blot analysis", "format": "cell-based"}, "[22]": {"target": "T2, Non-receptor tyrosine-protein kinase TYK2", "test": "Displacement of fluorophore-labeled probe from TYK2 JH2 domain (unknown origin) by HTRF assay"}, "Jurkat [23]": {"test_system": "Jurkat", "test": "Effect on JAK3 protein level in human Jurkat cells at 30 nM measured after 4 hrs by DIA-Based Proteomic analysis", "format": "functional, cell-based"}, "[24]": {"target": "T1, Protein cereblon/Non-receptor tyrosine-protein kinase TYK2", "test": "PROTAC activity at CRBN/TYK2 in human Jurkat cells assessed as induction of degradation of TYK2 at 10 nM preincubated for 24 hrs followed by compound washout and followed by incubation in compound free medium by Western blot analysis", "format": "cell-based"}, "Mus musculus [25]": {"test_system": "Mus musculus", "test": "Anti-inflammatory activity in imiquimod-induced female BALB/c mouse psoriasis model assessed as reduction in IL-23 expression in skin at 15 mg/kg, ip administered daily topically for 6 days by ELISA method", "format": "functional, organism-based", "conditions": "time 6.0 day"}, "[26]": {"target": "T1, Protein cereblon/Non-receptor tyrosine-protein kinase TYK2", "test": "PROTAC activity at CRBN/TYK2 in human Jurkat cells assessed as induction of degradation of TYK2 at 10 nM preincubated with cycloheximide for 2 hrs followed by compound addition and measured after 10 hrs by Western blot analysis", "format": "cell-based"}, "Mus musculus [27]": {"test_system": "Mus musculus", "test": "Anti-inflammatory activity in imiquimod-induced female BALB/c mouse psoriasis model assessed as reduction in psoriasis area severity index at 5 mg/kg, ip administered daily topically for 6 days", "format": "functional, organism-based", "conditions": "time 6.0 day"}, "Jurkat [28]": {"test_system": "Jurkat", "test": "Downregulation of JAK2 protein level in human Jurkat cells at 1 to 100 nM measured after 10 hrs by Western blot analysis", "format": "functional, cell-based", "conditions": "dose 1-100 nM"}, "[29]": {"target": "T1, Protein cereblon/Non-receptor tyrosine-protein kinase TYK2", "test": "PROTAC activity at CRBN/TYK2 in human Jurkat cells assessed as induction of degradation of TYK2 at 100 nM measured after 10 hrs by Western blot analysis relative to control", "format": "cell-based"}, "Mus musculus [30]": {"organism": "Mus musculus", "test": "Anti-inflammatory activity in imiquimod-induced female BALB/c mouse psoriasis model assessed as reduction in IL-23 expression in skin by ELISA method", "format": "functional, organism-based"}, "[31]": {"test": "Apparent permeability of the compound in human Caco-2 cells at 10 uM measured up to 120 min by LC-MS/MS analysis", "format": "ADME, cell-based"}, "Mus musculus [32]": {"test_system": "Mus musculus", "test": "Anti-inflammatory activity in imiquimod-induced female BALB/c mouse psoriasis model assessed as reduction in inflammatory infiltration at 5 mg/kg, ip administered daily topically for 6 days by H and E staining based analysis", "format": "functional, organism-based", "conditions": "time 6.0 day"}, "[33]": {"test": "Metabolic stability in mouse liver microsomes assessed as half life measured up to 120 mins by LC-MS/MS analysis", "format": "ADME, Microsome"}, "[34]": {"target": "T1, Protein cereblon/Non-receptor tyrosine-protein kinase TYK2", "test": "PROTAC activity at CRBN/TYK2 in human Jurkat cells assessed as induction of degradation of TYK2 at 10 nM preincubated with MLN4924 for 2 hrs followed by compound addition and measured after 10 hrs by Western blot analysis", "format": "cell-based"}, "Jurkat [35]": {"test_system": "Jurkat", "test": "Downregulation of TYK2 protein level in human Jurkat cells at 30 nM measured after 4 hrs by DIA-Based Proteomic analysis", "format": "functional, cell-based"}, "[36]": {"test": "AUC (0 to t) in male ICR mouse at 5 mg/kg, ip measured up to 24 hrs by LC-MS/MS analysis", "format": "ADME, organism-based", "conditions": "in vivo"}, "Jurkat [37]": {"test_system": "Jurkat", "test": "Effect on JAK1 protein level in human Jurkat cells at 30 nM measured after 4 hrs by DIA-Based Proteomic analysis", "format": "functional, cell-based"}},
  "note": "Calls of active or inactive are those of the source. The rule behind the calls is not given here.",
  "data": [
    {"smiles": "CNC(=O)c1cnc(Nc2ccc(C(=O)NC3CCC(Nc4ccc5c(c4)C(=O)N(C4CCC(=O)NC4=O)C5=O)CC3)cn2)cc1Nc1cccc(-c2ncc(F)cn2)c1OC", "note": "(configuration not stated)", "values": [
      {"measurement": "IC50", "setting": "[1]", "result": "> 100", "unit": "nM"},
      {"measurement": "Activity", "setting": "Mus musculus [2]", "result": "Active"},
      {"measurement": "Activity", "setting": "Mus musculus [3]", "result": "Active"},
      {"measurement": "IC50", "setting": "[4]", "result": 8.6, "unit": "nM"},
      {"measurement": "Activity", "setting": "[5]", "result": "inactive"},
      {"measurement": "Activity", "setting": "Mus musculus [6]", "result": "Active"},
      {"measurement": "Activity", "setting": "Mus musculus [7]", "result": "Active"},
      {"measurement": "MRT last at 24 h", "setting": "[8]", "result": 4.1, "unit": "h"},
      {"measurement": "DC50", "setting": "[9]", "result": 0.42, "unit": "nM"},
      {"measurement": "IC50", "setting": "[10]", "result": "> 10000", "unit": "nM"},
      {"measurement": "Activity", "setting": "Jurkat [11]", "result": "Active"},
      {"measurement": "Activity", "setting": "Mus musculus [12]", "result": "Active"},
      {"measurement": "Cmax", "setting": "[13]", "result": 1300, "unit": "ng/mL"},
      {"measurement": "Activity", "setting": "Mus musculus [14]", "result": "Active"},
      {"measurement": "Activity", "setting": "Jurkat [15]", "result": "Active"},
      {"measurement": "half-life", "setting": "[16]", "result": 2.7, "unit": "h"},
      {"measurement": "Tmax", "setting": "[17]", "result": 0.4, "unit": "h"},
      {"measurement": "Ratio IC50", "setting": "[18]", "result": "> 80"},
      {"measurement": "Activity", "setting": "Mus musculus [19]", "result": "Active"},
      {"measurement": "Activity", "setting": "[20]", "result": "inactive"},
      {"measurement": "IC50", "setting": "[21]", "result": 6.7, "unit": "nM"},
      {"measurement": "IC50", "setting": "[22]", "result": 1.2, "unit": "nM"},
      {"measurement": "Activity", "setting": "Jurkat [23]", "result": "inactive"},
      {"measurement": "Activity", "setting": "[24]", "result": "inactive"},
      {"measurement": "Activity", "setting": "Mus musculus [25]", "result": "Active"},
      {"measurement": "Activity", "setting": "[26]", "result": "Active"},
      {"measurement": "Activity", "setting": "Mus musculus [27]", "result": "Active"},
      {"measurement": "Activity", "setting": "Jurkat [28]", "result": "Active"},
      {"measurement": "Activity", "setting": "[29]", "result": 90, "unit": "%"},
      {"measurement": "Activity", "setting": "Mus musculus [30]", "result": "Active"},
      {"measurement": "Papp at 2 h, 10 µM", "setting": "[31]", "result": "< 0.1", "unit": "×10⁻⁶ cm/s"},
      {"measurement": "Activity", "setting": "Mus musculus [32]", "result": "Active"},
      {"measurement": "half-life", "setting": "[33]", "result": 1.68, "unit": "h"},
      {"measurement": "Activity", "setting": "[34]", "result": "inactive"},
      {"measurement": "Activity", "setting": "Jurkat [35]", "result": "Active"},
      {"measurement": "AUC(0-t) at 24 h", "setting": "[36]", "result": 4770, "unit": "ng·h/mL"},
      {"measurement": "Activity", "setting": "Jurkat [37]", "result": "inactive"}
    ]}
  ]
}
